Test results from patent US11795171B2, “Pyrrolotriazinones and imidazotriazinones as ubiquitin-specific protease 7 inhibitors” (Valo Health, Inc., priority 2014, dated 2023).

Target: USP7 (Homo sapiens (Human), UniProt Q93009)
Assay: USP7 Assay B (Ubitquin-Rhodamine110 Assay)
Assay type: biochemical
Conditions: Ub-Rh110 substrate 25 nM
Protocol: Stock compound solutions were stored at −20° C. as 10 mM in DMSO. […] Prestamped assay plates were allowed to come to room temperature on the day of the assay. For the screen, 100 nL of 2 mM was pre-dispensed for a final screening concentration of 10 μM (DMSO(fc)=0.5%). […] Unless otherwise indicated, all follow-up assays were run on triplecate plates. […] Pre-stamped with compounds were either not preincubated or preincubated with USP7 between 30 to 120 minutes prior to the addition of 10 μL of 2×Ub-Rh110 to compound plates. Plates were incubated stacked for either 23 or 45 minutes at room temperature before fluorescence was read on the Envision (Excitation at 485 nm and Emission at 535 nm; Perkin Elmer) or on the PheraSTAR (Excitation at 485 nm and Emission at 535 nm; BMG Labtech).
Data from USP7 Assays A and B were reported as percent inhibition (inh) compared with control wells based on the following equation: % inh=1−((FLU−AveLow)/(AveHigh−AveLow)) where FLU=measured Fluorescence (See Tables 2 and 3). AveLow=average Fluorescence of no enzyme control (n=16). AveHigh=average Fluorescence of DMSO control (n=16). IC50 values were determined by curve fitting of the standard 4 parameter logistic fitting algorithm included in the Activity Base software package: IDBS XE Designer Model205. Data is fitted using the Levenburg Marquardt algorithm.

Chain of USP7 (Q93009 208-1102): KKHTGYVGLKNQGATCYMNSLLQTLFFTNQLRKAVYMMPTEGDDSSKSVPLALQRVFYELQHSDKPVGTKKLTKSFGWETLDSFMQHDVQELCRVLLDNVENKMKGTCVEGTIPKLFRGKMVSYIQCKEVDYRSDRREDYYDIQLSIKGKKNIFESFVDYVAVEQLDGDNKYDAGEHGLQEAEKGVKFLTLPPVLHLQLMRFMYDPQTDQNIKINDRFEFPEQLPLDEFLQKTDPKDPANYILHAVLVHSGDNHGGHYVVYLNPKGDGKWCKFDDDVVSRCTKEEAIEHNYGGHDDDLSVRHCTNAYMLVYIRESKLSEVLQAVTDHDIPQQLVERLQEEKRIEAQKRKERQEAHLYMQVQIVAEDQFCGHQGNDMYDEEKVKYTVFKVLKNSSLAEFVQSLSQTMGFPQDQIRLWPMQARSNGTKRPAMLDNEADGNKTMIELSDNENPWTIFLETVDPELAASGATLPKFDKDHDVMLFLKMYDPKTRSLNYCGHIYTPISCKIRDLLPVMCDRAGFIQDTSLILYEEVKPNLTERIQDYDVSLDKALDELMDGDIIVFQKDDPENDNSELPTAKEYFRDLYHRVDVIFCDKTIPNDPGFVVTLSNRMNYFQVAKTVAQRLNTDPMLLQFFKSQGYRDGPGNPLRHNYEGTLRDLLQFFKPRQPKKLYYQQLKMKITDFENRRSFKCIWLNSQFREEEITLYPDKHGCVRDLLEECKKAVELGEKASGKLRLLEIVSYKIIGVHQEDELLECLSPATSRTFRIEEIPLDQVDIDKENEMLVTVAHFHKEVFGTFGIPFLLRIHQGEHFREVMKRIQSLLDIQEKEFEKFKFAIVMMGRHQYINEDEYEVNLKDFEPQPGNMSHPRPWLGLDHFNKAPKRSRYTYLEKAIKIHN

Row | SMILES | IC50
1 | O=C(c1ccc(Cn2cnc3ccccc32)cc1)N1CCC(O)(Cn2cnn3cccc3c2=O)CC1 [Compound I-64, 3-((1-(4-((1H-benzo[d]imidazol-1-yl)methyl)benzoyl)-4-hydroxypiperidin-4-yl)methyl)pyrrolo[2,1-f][1,2,4]triazin-4(3H)-one] | 1 to 10 µM
2 | O=C(c1ccc(-c2ccc3ncccc3c2)cc1)N1CCC(O)(Cn2cnn3cccc3c2=O)CC1 [Compound I-43, 3-((4-hydroxy-1-(4-(quinolin-6-yl)benzoyl)piperidin-4-yl)methyl)pyrrolo[2,1-f][1,2,4]triazin-4(3H)-one] | 1 to 10 µM
3 | N#Cc1ccc(NC(=O)Nc2cc3c(=O)n(CC4(O)CCN(C(=O)C5CC5)CC4)cnn3c2)cc1 [Compound I-100, 1-(4-cyanophenyl)-3-(3-((1-(cyclopropanecarbonyl)-4-hydroxypiperidin-4-yl)methyl)-4-oxo-3,4-dihydropyrrolo[2,1-f][1,2,4]triazin-6-yl)urea] | > 10 µM
4 | COc1cccc(-c2cccc(C(=O)N3CCC(O)(Cn4cnn5cccc5c4=O)CC3)c2)c1 [Compound I-10, 3-((4-hydroxy-1-(3′-methoxy-[1,1′-biphenyl]-3-carbonyl)piperidin-4-yl)methyl)pyrrolo[2,1-f][1,2,4]triazin-4(3H)-one] | > 10 µM
5 | Cc1ccc2[nH]ncc2c1-c1cccc(C(=O)N2CCC(O)(Cn3cnn4cccc4c3=O)CC2)c1 [Compound I-24, 3-((4-hydroxy-1-(3-(5-methyl-1H-indazol-4-yl)benzoyl)piperidin-4-yl)methyl)pyrrolo[2,1-f][1,2,4]triazin-4(3H)-one] | 1 to 10 µM
6 | O=C(Nc1ccc(F)cc1)Nc1cc2c(=O)n(CC3(O)CCN(C(=O)C4CC4)CC3)cnn2c1 [Compound I-88, 1-(3-((1-(cyclopropanecarbonyl)-4-hydroxypiperidin-4-yl)methyl)-4-oxo-3,4-dihydropyrrolo[2,1-f][1,2,4]triazin-6-yl)-3-(4-fluorophenyl)urea] | > 10 µM
7 | O=C(c1cccc(-c2ccc3nccn3c2)c1)N1CCC(O)(Cn2cnn3cccc3c2=O)CC1 [Compound I-22, 3-((4-hydroxy-1-(3-(imidazo[1,2-a]pyridin-6-yl)benzoyl)piperidin-4-yl)methyl)pyrrolo[2,1-f][1,2,4]triazin-4(3H)-one] | > 10 µM
8 | O=C(Cc1c(Cl)cccc1Cl)Nc1cc2c(=O)n(CC3(O)CCN(C(=O)C4CC4)CC3)cnn2c1 [Compound I-103, N-(3-((1-(cyclopropanecarbonyl)-4-hydroxypiperidin-4-yl)methyl)-4-oxo-3,4-dihydropyrrolo[2,1-f][1,2,4]triazin-6-yl)-2-(2,6-dichlorophenyl)acetamide] | > 10 µM
9 | CS(=O)(=O)c1ccc(N2CCN(C(=O)N3CCC(O)(Cn4cnn5cccc5c4=O)CC3)CC2)cc1 [Compound I-74, 3-((4-hydroxy-1-(4-(4-(methylsulfonyl)phenyl)piperazine-1-carbonyl)piperidin-4-yl)methyl)pyrrolo[2,1-f][1,2,4]triazin-4(3H)-one] | > 10 µM
10 | O=C(COc1cccc(Cl)c1Cl)Nc1cc2c(=O)n(CC3(O)CCN(C(=O)C4CC4)CC3)cnn2c1 [Compound I-106, N-(3-((1-(cyclopropanecarbonyl)-4-hydroxypiperidin-4-yl)methyl)-4-oxo-3,4-dihydropyrrolo[2,1-f][1,2,4]triazin-6-yl)-2-(2,3-dichlorophenoxy)acetamide] | 1 to 10 µM
11 | CCOc1cccc(-c2ccc(C(=O)N3CCC(O)(Cn4cnn5cccc5c4=O)CC3)cc2)c1 [Compound I-37, 3-((1-(3′-ethoxy-[1,1′-biphenyl]-4-carbonyl)-4-hydroxypiperidin-4-yl)methyl)pyrrolo[2,1-f][1,2,4]triazin-4(3H)-one] | > 10 µM
12 | O=C(NC1CCCC1)c1cccc(-c2cccc(C(=O)N3CCC(O)(Cn4cnn5cccc5c4=O)CC3)c2)c1 [Compound I-26, N-cyclopentyl-3′-(4-hydroxy-4-((4-oxopyrrolo[2,1-f][1,2,4]triazin-3(4H)-yl)methyl)piperidine-1-carbonyl)-[1,1′-biphenyl]-3-carboxamide] | > 10 µM
13 | O=C(c1cccc(-c2cccc(F)c2)c1)N1CCC(O)(Cn2cnn3cccc3c2=O)CC1 [Compound I-30, 3-((1-(3′-fluoro-[1,1′-biphenyl]-3-carbonyl)-4-hydroxypiperidin-4-yl)methyl)pyrrolo[2,1-f][1,2,4]triazin-4(3H)-one] | 1 to 10 µM
14 | Cc1ccc(-c2cccc(C(=O)N3CCC(O)(Cn4cnn5cccc5c4=O)CC3)c2)cc1C [Compound I-17, 3-((1-(3′,4′-dimethyl-[1,1′-biphenyl]-3-carbonyl)-4-hydroxypiperidin-4-yl)methyl)pyrrolo[2,1-f][1,2,4]triazin-4(3H)-one] | > 10 µM
15 | O=C(Nc1cccc(F)c1)Nc1cc2c(=O)n(CC3(O)CCN(C(=O)C4CC4)CC3)cnn2c1 [Compound I-96, 1-(3-((1-(cyclopropanecarbonyl)-4-hydroxypiperidin-4-yl)methyl)-4-oxo-3,4-dihydropyrrolo[2,1-f][1,2,4]triazin-6-yl)-3-(3-fluorophenyl)urea] | > 10 µM
16 | COc1ccc(-c2cccc(C(=O)N3CCC(O)(Cn4cnn5cccc5c4=O)CC3)c2)cc1 [Compound I-8, 3-((4-hydroxy-1-(4′-methoxy-[1,1′-biphenyl]-3-carbonyl)piperidin-4-yl)methyl)pyrrolo[2,1-f][1,2,4]triazin-4(3H)-one] | 1 to 10 µM
17 | Cc1ccc2cc(-c3ccc(C(=O)N4CCC(O)(Cn5cnn6cccc6c5=O)CC4)cc3)ccc2n1 [Compound I-45, 3-((4-hydroxy-1-(4-(2-methylquinolin-6-yl)benzoyl)piperidin-4-yl)methyl)pyrrolo[2,1-f][1,2,4]triazin-4(3H)-one] | 1 to 10 µM
18 | COc1cccc(-c2ccc(C(=O)N3CCC(O)(Cn4cnn5cccc5c4=O)CC3)cc2)c1 [Compound I-35, 3-((4-hydroxy-1-(3′-methoxy-[1,1′-biphenyl]-4-carbonyl)piperidin-4-yl)methyl)pyrrolo[2,1-f][1,2,4]triazin-4(3H)-one] | > 10 µM
19 | O=C(Nc1cc2c(=O)n(CC3(O)CCN(C(=O)C4CC4)CC3)cnn2c1)c1ccc(Cl)cc1Cl [Compound I-111, 2,4-dichloro-N-(3-((1-(cyclopropanecarbonyl)-4-hydroxypiperidin-4-yl)methyl)-4-oxo-3,4-dihydropyrrolo[2,1-f][1,2,4]triazin-6-yl)benzamide] | > 10 µM
20 | Cc1ccc(C)c(C(=O)Nc2cc3c(=O)n(CC4(O)CCN(C(=O)C5CC5)CC4)cnn3c2)c1 [Compound I-109, N-(3-((1-(cyclopropanecarbonyl)-4-hydroxypiperidin-4-yl)methyl)-4-oxo-3,4-dihydropyrrolo[2,1-f][1,2,4]triazin-6-yl)-2,5-dimethylbenzamide] | > 10 µM
21 | O=C(Nc1cccc(Cl)c1)Nc1cc2c(=O)n(CC3(O)CCN(C(=O)C4CC4)CC3)cnn2c1 [Compound I-85, 1-(3-chlorophenyl)-3-(3-((1-(cyclopropanecarbonyl)-4-hydroxypiperidin-4-yl)methyl)-4-oxo-3,4-dihydropyrrolo[2,1-f][1,2,4]triazin-6-yl)urea] | > 10 µM
22 | O=C(c1ccc(Sc2ccccc2)cc1)N1CCC(O)(Cn2cnn3cccc3c2=O)CC1 [Compound I-62, 3-((4-hydroxy-1-(4-(phenylthio)benzoyl)piperidin-4-yl)methyl)pyrrolo[2,1-f][1,2,4]triazin-4(3H)-one] | 1 to 10 µM
